What was measured:
Assay type in all cases: cell-based
[1] = target: human α1G T-type channels (Homo sapiens, UniProt O43497); assay: T-type calcium channel block, whole cell patch clamp, α1G; settings: HEK cells stably expressing human α1G; mainly non-inactivated protocol; values above 10,000 nM represented as 10000
Procedure, shortened: (§1)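 Using standard patch-clamp, T-type currents were recorded from stably transfected human α1G or α1H HEK 293 cells. Separate non-inactivating and inactivation voltage protocols distinguished resting from voltage-dependent block by locally applied compound in 0.1-0.01% DMSO.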

[2] = target: N-type calcium channel subunits (α1B, α2δ, and β3a) (Homo sapiens, UniProt Q00975); assay: Block of Cav2.2 channel, whole cell voltage clamp, manual and PatchXpress; settings: Table 5; table follows Assay Example 3 (whole cell voltage clamp / PatchXpress); assay not given
Procedure, shortened: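 Percent block taken as current amplitude ratio with versus without compound, applied in rising doses; IC50 fitted where one cell received multiple doses. Protocol: 50 ms pulses to +20 mV at 0.067 Hz from […] or −90 mV holding; P/n leak subtraction, no junction-potential correction; manual and PatchXpress recordings.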

[3] = target: human α1H T-type channels (Homo sapiens, UniProt O95180); assay: T-type calcium channel block, whole cell patch clamp, α1H; settings: HEK cells stably expressing human α1H; mainly non-inactivated protocol; values above 10,000 nM represented as 10000
Procedure, shortened: as §1

Chain of human α1H T-type channels (O95180 whole entry): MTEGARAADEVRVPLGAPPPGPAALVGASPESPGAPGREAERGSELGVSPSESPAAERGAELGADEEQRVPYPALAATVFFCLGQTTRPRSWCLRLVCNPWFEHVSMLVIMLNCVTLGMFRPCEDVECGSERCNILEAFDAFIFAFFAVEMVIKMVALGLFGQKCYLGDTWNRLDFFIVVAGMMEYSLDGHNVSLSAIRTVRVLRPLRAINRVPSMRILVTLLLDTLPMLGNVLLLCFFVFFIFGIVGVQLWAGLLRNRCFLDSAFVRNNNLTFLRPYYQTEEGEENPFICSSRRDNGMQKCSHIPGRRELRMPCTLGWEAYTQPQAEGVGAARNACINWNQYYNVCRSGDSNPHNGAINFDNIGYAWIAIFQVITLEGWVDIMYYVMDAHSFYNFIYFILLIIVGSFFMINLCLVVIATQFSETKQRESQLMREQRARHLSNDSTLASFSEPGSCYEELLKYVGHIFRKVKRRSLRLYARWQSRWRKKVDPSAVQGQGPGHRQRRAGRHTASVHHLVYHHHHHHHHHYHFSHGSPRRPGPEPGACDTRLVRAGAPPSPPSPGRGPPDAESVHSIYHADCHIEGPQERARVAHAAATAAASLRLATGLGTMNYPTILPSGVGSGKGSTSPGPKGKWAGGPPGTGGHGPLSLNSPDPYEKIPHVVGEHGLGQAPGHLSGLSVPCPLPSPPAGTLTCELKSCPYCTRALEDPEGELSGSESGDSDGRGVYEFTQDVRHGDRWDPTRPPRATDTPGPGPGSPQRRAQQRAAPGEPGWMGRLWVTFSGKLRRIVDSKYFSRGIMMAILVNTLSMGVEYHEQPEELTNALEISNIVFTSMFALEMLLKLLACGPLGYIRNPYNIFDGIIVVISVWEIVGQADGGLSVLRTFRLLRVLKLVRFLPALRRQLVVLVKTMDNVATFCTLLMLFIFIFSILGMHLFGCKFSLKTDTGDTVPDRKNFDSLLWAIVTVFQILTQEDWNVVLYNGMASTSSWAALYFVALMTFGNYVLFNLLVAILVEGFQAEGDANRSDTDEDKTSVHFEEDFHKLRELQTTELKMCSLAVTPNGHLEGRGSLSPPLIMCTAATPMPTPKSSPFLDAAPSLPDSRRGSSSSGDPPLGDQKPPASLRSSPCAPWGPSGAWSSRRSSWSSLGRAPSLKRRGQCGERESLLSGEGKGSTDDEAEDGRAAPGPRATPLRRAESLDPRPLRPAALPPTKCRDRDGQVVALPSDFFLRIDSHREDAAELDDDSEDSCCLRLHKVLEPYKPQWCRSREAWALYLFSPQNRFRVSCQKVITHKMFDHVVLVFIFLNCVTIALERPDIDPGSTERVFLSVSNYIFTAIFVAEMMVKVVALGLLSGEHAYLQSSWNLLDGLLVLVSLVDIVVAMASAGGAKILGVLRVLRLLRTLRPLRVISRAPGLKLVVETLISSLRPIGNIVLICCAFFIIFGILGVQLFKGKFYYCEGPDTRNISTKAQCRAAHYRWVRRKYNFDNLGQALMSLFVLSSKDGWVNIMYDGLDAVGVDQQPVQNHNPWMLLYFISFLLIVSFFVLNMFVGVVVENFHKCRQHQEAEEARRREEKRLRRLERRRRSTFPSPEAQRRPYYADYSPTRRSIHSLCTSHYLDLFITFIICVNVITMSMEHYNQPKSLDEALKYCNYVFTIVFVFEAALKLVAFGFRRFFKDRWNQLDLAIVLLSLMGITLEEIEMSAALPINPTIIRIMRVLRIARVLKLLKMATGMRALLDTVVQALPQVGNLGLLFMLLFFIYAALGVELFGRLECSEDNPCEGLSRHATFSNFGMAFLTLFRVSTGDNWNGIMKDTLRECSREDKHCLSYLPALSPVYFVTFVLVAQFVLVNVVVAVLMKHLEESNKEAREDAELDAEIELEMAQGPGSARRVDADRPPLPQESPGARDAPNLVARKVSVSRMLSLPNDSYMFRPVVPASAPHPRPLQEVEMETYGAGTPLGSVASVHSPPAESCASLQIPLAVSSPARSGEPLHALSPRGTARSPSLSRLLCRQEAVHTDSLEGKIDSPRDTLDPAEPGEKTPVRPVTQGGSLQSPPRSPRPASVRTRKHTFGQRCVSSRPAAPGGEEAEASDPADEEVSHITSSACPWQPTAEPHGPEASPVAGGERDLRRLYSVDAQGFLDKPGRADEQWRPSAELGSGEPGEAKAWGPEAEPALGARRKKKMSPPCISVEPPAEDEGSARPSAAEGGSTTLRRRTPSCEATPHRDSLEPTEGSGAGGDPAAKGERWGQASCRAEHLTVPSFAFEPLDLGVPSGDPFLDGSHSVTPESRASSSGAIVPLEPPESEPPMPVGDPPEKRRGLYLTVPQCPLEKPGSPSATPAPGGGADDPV
Chain of human α1G T-type channels (O43497 whole entry): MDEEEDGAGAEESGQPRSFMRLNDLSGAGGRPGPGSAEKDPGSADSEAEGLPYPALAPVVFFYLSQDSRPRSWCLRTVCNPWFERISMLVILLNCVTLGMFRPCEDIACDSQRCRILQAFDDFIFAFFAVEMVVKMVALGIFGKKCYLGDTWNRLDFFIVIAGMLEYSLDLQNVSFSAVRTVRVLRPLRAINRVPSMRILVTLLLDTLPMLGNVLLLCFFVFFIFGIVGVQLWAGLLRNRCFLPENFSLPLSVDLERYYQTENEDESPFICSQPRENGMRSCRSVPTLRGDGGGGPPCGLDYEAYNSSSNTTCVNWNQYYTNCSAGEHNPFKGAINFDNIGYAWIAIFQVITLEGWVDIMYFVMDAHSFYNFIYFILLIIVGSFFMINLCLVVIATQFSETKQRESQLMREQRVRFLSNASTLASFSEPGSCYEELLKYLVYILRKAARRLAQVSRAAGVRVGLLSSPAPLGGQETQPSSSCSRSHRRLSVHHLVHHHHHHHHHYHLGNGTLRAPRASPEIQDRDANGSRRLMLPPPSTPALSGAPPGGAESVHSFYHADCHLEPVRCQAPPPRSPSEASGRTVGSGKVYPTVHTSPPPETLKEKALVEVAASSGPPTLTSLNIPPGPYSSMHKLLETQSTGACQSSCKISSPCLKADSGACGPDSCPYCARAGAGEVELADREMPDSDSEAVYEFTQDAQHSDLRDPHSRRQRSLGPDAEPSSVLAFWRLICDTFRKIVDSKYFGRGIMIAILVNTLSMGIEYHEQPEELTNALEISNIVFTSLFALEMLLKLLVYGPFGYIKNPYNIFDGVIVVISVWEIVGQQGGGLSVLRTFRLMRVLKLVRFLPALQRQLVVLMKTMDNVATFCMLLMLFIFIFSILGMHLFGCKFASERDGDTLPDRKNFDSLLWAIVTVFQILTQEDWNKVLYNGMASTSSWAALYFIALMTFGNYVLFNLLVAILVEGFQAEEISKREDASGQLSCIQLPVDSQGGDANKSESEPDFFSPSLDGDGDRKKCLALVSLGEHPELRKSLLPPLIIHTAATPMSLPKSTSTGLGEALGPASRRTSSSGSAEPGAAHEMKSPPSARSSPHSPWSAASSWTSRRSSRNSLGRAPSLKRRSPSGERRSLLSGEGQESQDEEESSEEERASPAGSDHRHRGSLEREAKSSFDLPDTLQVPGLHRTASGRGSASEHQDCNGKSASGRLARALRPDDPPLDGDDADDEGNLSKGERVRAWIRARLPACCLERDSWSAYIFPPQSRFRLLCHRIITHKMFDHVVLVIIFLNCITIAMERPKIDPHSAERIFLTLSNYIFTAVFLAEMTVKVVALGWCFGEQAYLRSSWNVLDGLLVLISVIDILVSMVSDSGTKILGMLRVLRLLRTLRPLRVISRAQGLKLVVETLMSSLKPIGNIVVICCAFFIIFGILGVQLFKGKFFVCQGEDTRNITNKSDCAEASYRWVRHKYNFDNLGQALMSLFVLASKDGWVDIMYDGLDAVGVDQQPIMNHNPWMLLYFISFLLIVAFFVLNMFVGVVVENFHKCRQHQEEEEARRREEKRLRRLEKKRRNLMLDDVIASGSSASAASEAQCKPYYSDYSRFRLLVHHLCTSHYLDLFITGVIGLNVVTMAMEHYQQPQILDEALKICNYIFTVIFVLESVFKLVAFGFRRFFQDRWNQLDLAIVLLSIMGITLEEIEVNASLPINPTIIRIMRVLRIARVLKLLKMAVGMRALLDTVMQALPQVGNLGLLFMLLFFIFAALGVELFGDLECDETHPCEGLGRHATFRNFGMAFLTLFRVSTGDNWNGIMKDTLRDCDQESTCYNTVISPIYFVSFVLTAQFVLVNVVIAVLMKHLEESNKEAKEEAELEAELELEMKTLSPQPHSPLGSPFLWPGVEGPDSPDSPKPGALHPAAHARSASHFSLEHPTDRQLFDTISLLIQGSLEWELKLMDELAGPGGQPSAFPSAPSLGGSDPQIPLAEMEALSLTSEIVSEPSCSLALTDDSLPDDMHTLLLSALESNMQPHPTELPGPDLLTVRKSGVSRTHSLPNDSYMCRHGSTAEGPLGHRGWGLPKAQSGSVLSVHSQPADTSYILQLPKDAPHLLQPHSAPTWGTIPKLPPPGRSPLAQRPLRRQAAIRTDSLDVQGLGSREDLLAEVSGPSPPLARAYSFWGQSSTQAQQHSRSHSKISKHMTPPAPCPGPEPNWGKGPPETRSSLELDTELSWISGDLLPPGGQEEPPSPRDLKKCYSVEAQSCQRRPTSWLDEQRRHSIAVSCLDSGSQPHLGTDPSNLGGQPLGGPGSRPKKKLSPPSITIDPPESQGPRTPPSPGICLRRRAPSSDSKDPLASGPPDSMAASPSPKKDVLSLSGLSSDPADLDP

Molecule | IC50 [1] | IC50 [2] | IC50 [3]
CC1(NC(=O)c2ccc(C(F)(F)F)cc2S(C)(=O)=O)CCC(S(=O)(=O)c2cccc(C(F)(F)F)c2)CC1 (stereo not drawn) [Compound 311, N-(1-methyl-4-(3-(trifluoromethyl)phenylsulfonyl)cyclohexyl)-2-(methylsulfonyl)-4-(trifluoromethyl)benzamide] | 5080 nM | 650 nM | 8500 nM
CC1(NC(=O)CN[C@H]2C[C@H](CS(=O)(=O)c3cccc(C(F)(F)F)c3)C2)CCC1 [Compound 351, N-(1-methylcyclobutyl)-2-((1R,3R)-3-((3-(trifluoromethyl)phenylsulfonyl)methyl)cyclobutylamino)acetamide] | > 10000 nM | 2770 nM | 7430 nM
O=S(=O)(NC[C@H]1C[C@H](S(=O)(=O)c2cccc(C(F)(F)F)c2)C1)c1cccc(C(F)(F)F)c1 [Compound 427, 3-(trifluoromethyl)-N-(((1R,3R)-3-(3-(trifluoromethyl)phenylsulfonyl)cyclobutyl)methyl)benzenesulfonamide] | 3820 nM | 920 nM | 880 nM
CC1(S(=O)(=O)c2cccc(C(F)(F)F)c2)CCC(NC(=O)c2ccc(C(F)(F)F)nc2)CC1 (stereo not drawn) [Compound 1, N-(4-methyl-4-(3-(trifluoromethyl)phenylsulfonyl)cyclohexyl)-6-(trifluoromethyl) nicotinamide] | > 10000 nM | 1030 nM | 7400 nM
O=C(N[C@H]1CC[C@](F)(S(=O)(=O)c2cccc(OC(F)(F)F)c2)CC1)c1ccc(F)c(Cl)c1 [Compound 250, 3-chloro-4-fluoro-N-((1R,4R)-4-fluoro-4-(3-(trifluoromethoxy)phenylsulfonyl)cyclohexyl)benzamide] | 4280 nM | 800 nM | 990 nM
4-chloro-2-methoxy-N-((1S,4S)-4- ((3- (trifluoromethyl)phenylsulfonyl) methyl)cyclohexyl)benzamide [Compound 140] | 1100 nM | 700 nM | 700 nM
O=C(Nc1cccc(C(F)(F)F)n1)[C@H]1C[C@@H](S(=O)(=O)c2cccc(C(F)(F)F)c2)C1 [Compound 412, (1S,3S)-3-(3-(trifluoromethyl)phenylsulfonyl)-N-(6-(trifluoromethyl)pyridin-2-yl)cyclobutanecarboxamide] | 6810 nM | 590 nM | 1550 nM
O=C(N[C@H]1C[C@H](S(=O)(=O)c2cccc(C(F)(F)F)c2)C1)c1ccc(Cl)c(F)c1 [Compound 429, 4-chloro-3-fluoro-N-((1S,3S)-3-(3-(trifluoromethyl)phenylsulfonyl)cyclobutyl)benzamide] | > 10000 nM | 770 nM | 8370 nM
2-(4,4-difluoropiperidin-1-yl)-N- ((1R,4R)-4-((3- (trifluoromethyl)phenylsulfonyl) methyl)cyclohexyl)acetamide [Compound 166] | > 10000 nM | 750 nM | 8470 nM
COc1cc(F)cc(C(=O)N[C@H]2CC[C@H](CS(=O)(=O)c3cccc(C(F)(F)F)c3)CC2)c1 [Compound 100, 3-fluoro-5-methoxy-N-((1R,4R)-4-((3-(trifluoromethyl)phenylsulfonyl)methyl)cyclohexyl)benzamide] | 5390 nM | 2320 nM | 1790 nM
5-(trifluoromethyl)-N-((1R,4R)-4- ((3- (trifluoromethyl)phenylsulfonyl) methyl)cyclohexyl)picolinamide [Compound 104] | > 10000 nM | 840 nM | > 10000 nM

The remaining molecules from weak to strong by IC50 [1], led by results:

IC50 [1] | IC50 [2] | IC50 [3] | Molecule
3550 nM | 210 nM | 6460 nM | CC(C)(C)S(=O)(=O)c1ccsc1C(=O)N[C@H]1CC[C@@H](S(=O)(=O)c2cccc(C(F)(F)F)c2)CC1 [Compound 204, 3-(tert-butylsulfonyl)-N-((1S,4S)-4-(3-(trifluoromethyl)phenylsulfonyl)cyclohexyl)thiophene-2-carboxamide]
2960 nM | 1020 nM | 1940 nM | CC1(NC(=O)c2ccc(C(F)(F)F)cn2)CCC(S(=O)(=O)c2cccc(C(F)(F)F)c2)CC1 (stereo not drawn) [Compound 312, N-(1-methyl-4-(3-(trifluoromethyl)phenylsulfonyl)cyclohexyl)-5-(trifluoromethyl)picolinamide]
2790 nM | 360 nM | 4660 nM | COc1cc(F)cc(C(=O)NC2CCC(S(=O)(=O)c3cccc(C(F)(F)F)c3)CC2)c1 (stereo not drawn) [Compound 25, 3-fluoro-5-methoxy-N-(4-(3-(trifluoromethyl)phenylsulfonyl)cyclohexyl)benzamide]
2790 nM | 240 nM | 1190 nM | CN(C(=O)CNC1CCC(S(=O)(=O)c2cccc(C(F)(F)F)c2)CC1)C(C)(C)C (stereo not drawn) [Compound 23, N-tert-butyl-N-methyl-2-(4-(3-(trifluoromethyl)phenylsulfonyl)cyclohexylamino)acetamide]
2650 nM | 1690 nM | 3620 nM | O=C(Nc1cc(C(F)(F)F)ccn1)[C@H]1C[C@H](S(=O)(=O)c2cccc(C(F)(F)F)c2)C1 [Compound 409, (1R,3R)-3-(3-(trifluoromethyl)phenylsulfonyl)-N-(4-(trifluoromethyl)pyridin-2-yl)cyclobutanecarboxamide]
2630 nM | 500 nM | 1820 nM | COc1cc(Cl)ccc1C(=O)N[C@H]1CC[C@@H](S(=O)(=O)c2cccc(C(F)(F)F)c2)CC1 [Compound 134, 4-chloro-2-methoxy-N-((1S,4S)-4-(3-(trifluoromethyl)phenylsulfonyl)cyclohexyl)benzamide]
2570 nM | 590 nM | 1890 nM | O=C(N[C@H]1CC[C@@H](S(=O)(=O)c2cccc(C(F)(F)F)c2)CC1)c1cncc(C(F)(F)F)c1 [Compound 203, 5-(trifluoromethyl)-N-((1S,4S)-4-(3-(trifluoromethyl)phenylsulfonyl)cyclohexyl)nicotinamide]
2480 nM | 280 nM | 2230 nM | CC(C)(C)CC(=O)N[C@H]1CC[C@@](F)(S(=O)(=O)c2cccc(C(F)(F)F)c2)CC1 [Compound 278, N-((1S,4S)-4-fluoro-4-(3-(trifluoromethyl)phenylsulfonyl)cyclohexyl)-3,3-dimethylbutanamide]
2340 nM | 460 nM | 1040 nM | O=C(NC[C@H]1C[C@@H](S(=O)(=O)c2cccc(C(F)(F)F)c2)C1)c1ccc(F)c(C(F)(F)F)c1 [Compound 377, 4-fluoro-3-(trifluoromethyl)-N-(((1S,3S)-3-(3-(trifluoromethyl)phenylsulfonyl)cyclobutyl)methyl)benzamide]
1820 nM | 180 nM | 960 nM | O=C1c2cc(C(F)(F)F)nn2CCN1[C@H]1CC[C@@](F)(S(=O)(=O)c2cc(F)cc(C(F)(F)F)c2)CC1 [Compound 333, 5-((1S,4S)-4-fluoro-4-(3-fluoro-5-(trifluoromethyl)phenylsulfonyl)cyclohexyl)-2-(trifluoromethyl)-6,7-dihydropyrazolo[l,5-a]pyrazin-4(5H)-one]
1810 nM | 830 nM | 300 nM | O=C(NC[C@H]1C[C@@H](S(=O)(=O)c2cccc(C(F)(F)F)c2)C1)c1ccc(F)c(Cl)c1 [Compound 379, 3-chloro-4-fluoro-N-(((1S,3S)-3-(3-(trifluoromethyl)phenylsulfonyl)cyclobutyl)methyl)benzamide]
1430 nM | 1650 nM | 2330 nM | O=C(CN[C@H]1CC[C@@H](S(=O)(=O)c2cccc(C(F)(F)F)c2)CC1)NCC(F)(F)F [Compound 48, N-(2,2,2-trifluoroethyl)-2-((1S,4S)-4-(3-(trifluoromethyl)phenylsulfonyl)cyclohexylamino)acetamide]
1250 nM | 1140 nM | 1060 nM | O=C(Nc1ccc(Oc2ccc(F)c(Cl)c2)nc1)[C@H]1C[C@H](S(=O)(=O)c2cccc(C(F)(F)F)c2)C1 [Compound 399, (1R,3R)-N-(6-(3-chloro-4-fluorophenoxy)pyridin-3-yl)-3-(3-(trifluoromethyl)phenylsulfonyl)cyclobutane carboxamide]
900 nM | 850 nM | 350 nM | O=C(NC[C@H]1C[C@H](S(=O)(=O)c2cccc(C(F)(F)F)c2)C1)c1ccnn1CC(F)(F)F [Compound 367, 1-(2,2,2-trifluoroethyl)-N-(((1R,3R)-3-(3-(trifluoromethyl)phenylsulfonyl)cyclobutyl)methyl)-1H-pyrazole-5-carboxamide]
690 nM | 1060 nM | 1350 nM | CN(C(=O)c1ccc(C(F)(F)F)cc1S(C)(=O)=O)[C@H]1CC[C@@](F)(S(=O)(=O)c2cc(F)cc(C(F)(F)F)c2)CC1 [Compound 336, N-((1S,4S)-4-fluoro-4-(3-fluoro-5-(trifluoromethyl)phenylsulfonyl)cyclohexyl)-N-methyl-2-(methylsulfonyl)-4-(trifluoromethyl)benzamide]
630 nM | 790 nM | 320 nM | O=S(=O)(CCC(F)(F)F)N[C@H]1CC[C@@](F)(S(=O)(=O)c2cccc(C(F)(F)F)c2)CC1 [Compound 295, 3,3,3-trifluoro-N-((1S,4S)-4-fluoro-4-(3-(trifluoromethyl)phenylsulfonyl)cyclohexyl) propane-1-sulfonamide]
